In patent US20150164868A1, “METHODS OF ADMINISTERING RIFAXIMIN WITHOUT PRODUCING ANTIBIOTIC RESISTANCE” (priority 2012, published 2015):
Converted amounts (≈) assume the structure as drawn. Like-named read-outs stand apart in the source and are kept apart here.

Legend:
Staphylococcus spp. [1] = assay: Rifampicin susceptibility testing (E-test strip) of Staphylococcus colonies isolated from rat stool; assay type: cell-based; conditions: for MIC: read-out: mean inhibitory concentration (MIC) for rifampicin
Experimental: Rifampicin susceptibility was tested in Staphylococcus spp. isolated from stool of rats before and after rifaximin treatment for 10 days. From PEA plates, 30 random recognizable Staphylococcus colonies were picked for baseline cultures, suspended in PBS and spread on PEA agar plates to create a lawn. A commercially available rifampicin test strip was added to each lawn to detect rifampicin resistance. The range of rifampicin mean inhibitory concentrations (MICs) detected by E-test was 0.002 to 32 μg/mL. Based on manufacturer's instruction, growth at <2 ug/mL was considered sensitive, growth at 2-4 ug/mL was considered intermediate resistance to rifampicin, and growth at >4 ug/mL was considered resistant to rifampicin. After 10 days of rifaximin, stool was again plated on PEA and another 30 staphylococcal colonies were picked for producing a lawn to analyze rifampicin resistance using the applied test strip. Since no significant Staphylococcus spp. colonies remained on day 30 post rifaximin treatment, sensitivity testing could not be assessed.

coliforms [2] = assay: Luminal coliform culture by bowel segment; assay type: in vivo, Sprague-Dawley rats; conditions: after treatment with rifaximin vs non-treated control rats; bowel segments (FIG. 3)
Description: (§1) For the examination of luminal bacterial counts, rats were euthanized and dissected after 10 days of PBS (n=10) (control), after 10 days of rifaximin (n=10) and 30 days post rifaximin (n=10). During the dissection, pre-specified segments of duodenum, jejunum, ileum, cecum and left colon were ligated and resected as previously described (Pimentel et al. 2008. Dig Dis Sci 53:982-989). Luminal contents were extracted from each segment. For culture of coliforms, serial dilutions were again prepared and plated on MacConkey agar then incubated and counted. In addition, luminal contents were also used to determine total bacterial counts by qPCR.

total bacteria = assay: qPCR of total luminal bacteria by bowel segment; assay type: in vivo, Sprague-Dawley rats
Description: as §1
To quantify bacteria in the luminal contents, qPCR was used. DNA was isolated from luminal contents of the duodenal, jejunal, ileal, cecal and left colon samples using commercially available kits. Bacterial universal primers (Mohammadi et al. 2003. J Clin Microbiol 41(10):4796-4798) were used to amplify the 16S rRNA gene from DNA using a commercially available RT-PCR detection system and optical grade 96-well plates. Samples were run in duplicate. To generate standard curves, the Ct values were analyzed from ten-fold dilutions of lysed Escherichia coli cultures. E. coli from a number of laboratory strains were pooled and grown in LB media.
The same adult male Sprague-Dawley rats from the coliform culture study described above were used here. In this experiment, ten rats were euthanized at day 10 of rifaximin treatment, and ten rats were euthanized at day 30 after completion of rifaximin treatment. As a control to these two groups, a group of 10 rats were gavaged with only PBS (placebo); these rats were also euthanized after 10 days. After euthanasia, rats were dissected to remove a segment of ileum, jejunum and duodenum as well as cecum and left colon. Luminal contents from these 5 areas were removed, and DNA was extracted. Quantitative PCR (qPCR) was used to determine the total number of bacteria in each segment of bowel. These counts were compared between control, rifaximin treated and 30 day post rifaximin rats (Example 1).

[3] = test system: Staphylococcus, Streptococcus, Enterococcus, and Enterobacteriaceae; conditions: species of Staphylococcus; cited from earlier work
coliforms [4] = assay: Stool coliform culture (MacConkey agar) with rifaximin gavage; assay type: in vivo, Sprague-Dawley rats
Experimental: (§2) After this equilibration period, fresh stool was collected from each rat (n=30) by anal stimulation. The stool collected on Day 0 was homogenized and plated by serial dilution with 1XPBS (Phosphate Buffered Saline) on Blood Agar with Phenylethyl Alcohol (PEA) to select for the presence of the Staphylococcal spp. Similarly, homogenized stool was serially plated on MacConkey agar to select for and determine coliform counts in the stool. All plates were incubated for 24 hours at 37° C. Based on serial stool dilution and colony counts, the baseline stool levels of Staphylococcus spp. and coliforms were determined
Rats were divided into 3 treatment groups and gavaged daily for 10 days with or without high dose rifaximin Group 1 was gavaged with PBS alone, Group 2 was gavaged daily with rifaximin 200 mg in PBS. Groups 1 and 2 were euthanized after the 10 days of daily gavage. Group 3 was gavaged daily with rifaximin 200 mg in PBS and housed for 30 days following completion of rifaximin before euthanasia. During the rifaximin treatment, fresh stool was collected daily as described above. […] After the completion of 10 days of treatment, 10 rats were euthanized for bacterial quantitation by culture and qPCR throughout the intestinal tract. […] These rats had interval stool culture for quantitation of Staphylococcus spp. and coliforms and the determination of recovery time of stool flora if any.

[5] = oral administration; Descombe et al. 1994; cited from earlier work
Staphylococcal spp = assay: IBS model: Staphylococcus sensitivity testing to rifampin (E-test strips); assay type: cell-based
Experimental: The effect of rifaximin on Staphylococcal species was tested and antibiotic resistance was examined. The contents of the ligated bowel segments were examined to determine the quantity and type of bacteria by segment and evaluate expression of mucosal cytokines.
Among rats with detectable staphylococcus, rifampin resistance was tested using E-test strips and Data was analyzed by Fisher's Exact Test. […] (Table 2)

Staphylococcus spp. [6] = assay: Stool Staphylococcus spp. colony counts (PEA agar) during and after daily rifaximin gavage; assay type: in vivo, Sprague-Dawley rats
Description: Adult male Sprague-Dawley rats were acquired and quarantined for 5 days. During this time, chow was standardized to ensure all animals had identical feeding type.
as §2
Rats were divided into 3 treatment groups and gavaged daily for 10 days with or without high dose rifaximin Group 1 was gavaged with PBS alone, Group 2 was gavaged daily with rifaximin 200 mg in PBS. Groups 1 and 2 were euthanized after the 10 days of daily gavage. Group 3 was gavaged daily with rifaximin 200 mg in PBS and housed for 30 days following completion of rifaximin before euthanasia. During the rifaximin treatment, fresh stool was collected daily as described above. Again, stool was homogenized and plated by serial dilution on MacConkey and PEA agar to determine coliform and Staphylococcus spp. counts during the treatment. After the completion of 10 days of treatment, 10 rats were euthanized for bacterial quantitation by culture and qPCR throughout the intestinal tract. The remaining 10 rats were followed for 30 days after completing rifaximin. These rats had interval stool culture for quantitation of Staphylococcus spp. and coliforms and the determination of recovery time of stool flora if any.

Staphylococcus = assay: IBS model (post C. jejuni): presence of Staphylococcus after rifaximin; assay type: in vivo, Sprague-Dawley rats; conditions: rats with IBS phenotype; 51 rats rifaximin vs 50 placebo
Experimental: Following acute infection with C. jejuni, rats develop a phenotype of IBS and small intestinal bacterial overgrowth. For the examination of antibiotic resistance following rifaximin treatment in subject with IBS, 100 Sprague-Dawley rats were gavaged with 10^8 cfu of C. jejuni 81-176 within 30 minutes of gavage with a bicarbonate solution using a ball-tipped gavage needle. After gavage rats were followed with daily stool culture for C. jejuni for seven consecutive days to verify infection. In addition, stool was characterized on the basis of consistency.
Thirty days from gavage, stool samples were collected on two consecutive days to confirm absence of C. jejuni in stool. Once rats were confirmed to have cleared C. jejuni, they were housed in common conditions for a period of three months. […]
The rats were then randomized and received either a 200 mg dose of rifaximin in PBS or PBS alone daily for 10 days. […] Upon completion of treatment with rifaximin, the rats were monitored for an additional seven days. […]
The effect of rifaximin on Staphylococcal species was tested and antibiotic resistance was examined. The contents of the ligated bowel segments were examined to determine the quantity and type of bacteria by segment and evaluate expression of mucosal cytokines. […]

coliform bacteria = assay: Effect of dietary fat with rifaximin on coliform bacteria; assay type: in vivo, Sprague-Dawley rats; conditions: healthy rats
Experimental: Adult male Sprague-Dawley Rats were randomly assigned to three groups. Group 1 was gavaged daily for 7 days with rifaximin in PBS. Group 2 received rifaximin 200 mg in lipid daily by gavage. Group 3 were 10 rats only given PBS (control). Rats had fresh stool collected by anal stimulation at baseline and daily during gavage. The stool was homogenized and plated by serial dilution on MacConkey Agar (BD Diagnostics, Franklin Lakes, N.J.). This is a selective agar for coliform bacteria. Based on serial dilution, the total number of coliform bacteria was determined.

[7] = all rats receiving rifaximin (n=20) vs control rats
[8] = after 10 days of gavage with rifaximin, 30 random colonies
[9] = Staphylococcus from IBS-phenotype rats treated with rifaximin
[10] = sensitivity to rifampin, IBS-phenotype rats treated with rifaximin

CO[C@H]1/C=C/O[C@@]2(C)Oc3c(C)c(O)c4c(O)c(c(/C=N/N5CCN(C)CC5)c(O)c4c3C2=O)NC(=O)/C(C)=C\C=C\[C@H](C)[C@H](O)[C@@H](C)[C@@H](O)[C@@H](C)[C@H](OC(C)=O)[C@@H]1C [rifampicin]
MIC (Staphylococcus spp. [1]; 240 h, Staphylococcus colonies from rat stool after 10 days of high dose rifaximin, P=0.63 vs baseline): 0.91 ± 0.52 µg/mL (≈ 1.11 µM)
MIC (Staphylococcus spp. [1]; Staphylococcus colonies from rat stool at baseline (before rifaximin)): 1.1 ± 1.6 µg/mL (≈ 1.34 µM)

(2S,16Z,18E,20S,21S,22R,23R,24R,25S,26S,27S,28E)-5,6,21,23,25 Pentahydroxy-27-methoxy-2,4,11,16,20,22,24,26-octamethyl-2,7-(epoxypentadeca-(1,11,13)trienimino)benzofuro(4,5-e)pyrido(1,2,-a)benzimidazole-1,15(2H)-dione,25-acetate) [rifaximin]
change in luminal coliform counts by culture (coliforms [2]): no significant change in coliform counts by culture
durability of the reduction in duodenal bacteria counts by qPCR (total bacteria; after 10 days of rifaximin and 30 days post, P=0.08, not quite significant): sustained 30 days after the completion of rifaximin
duodenal total bacterial counts by qPCR (total bacteria; [7]): significant reduction in duodenal bacterial counts
jejunal total bacterial counts by qPCR (total bacteria; [7]): appeared to diminish as well, this did not reach statistical significance
total bacterial counts by qPCR in the ileum, cecum or left colon (total bacteria; [7]): no differences were seen
Staphylococcal colonies Intermediate (2-4 ug/mL) resistance to rifampin, % (Staphylococcus spp. [1]; [8]): 3.3%
Staphylococcal colonies Sensitive (<2 ug/mL) to rifampin, % (Staphylococcus spp. [1]; [8]): 96.6%
antibacterial activity in vitro [3]: active
time to recovery of stool coliform count (coliforms [4]; after the 10-day rifaximin treatment): three
median stool coliform count (coliforms [4]; day 10 of high dose rifaximin, P<0.01 vs baseline): 2.2×10^3 cfu/mL
systemic absorption [5]: negligible systemic absorption
Median MIC of rifampin (Staphylococcal spp; [9]): 0.214 µg/mL
Range of rifampin MIC (Staphylococcal spp; [9]): 0.012 to 16 µg/mL
rifampin resistance of Staphylococcus after treatment (Staphylococcal spp; rats with an IBS phenotype, detectable staphylococcus, Fisher's Exact Test): no evidence of rifampin resistance
% of rats with resistance (Staphylococcal spp; resistance to rifampin, 51 IBS-phenotype rats treated with rifaximin): 1.96%
# of intermed Staphylococcal spp (Staphylococcal spp; [10]): 0
# of resistant Staphylococcal spp (Staphylococcal spp; [10]): 1
# of sensitive Staphylococcal spp (Staphylococcal spp; [10]): 10
Staphylococcus spp. colonies in stool 30 days after rifaximin (Staphylococcus spp. [6]; 30 days after completion of 10 days rifaximin): insufficient Staphylococcus spp. colonies in any of the rats to analyze
range of total count of Staphylococcus spp in stool (Staphylococcus spp. [6]; after 10 days of rifaximin 200 mg daily gavage, 20 rats): 0-8.6×10^5 cfu/ml
median total count of Staphylococcus spp in stool (Staphylococcus spp. [6]; after 10 days of rifaximin 200 mg daily gavage, total of S. aureus and coag-Staphylococcus, 20 rats, p<0.01 vs baseline): 1.20×10^5 cfu/ml
level of S. aureus in stool of rats with detectable S. aureus (Staphylococcus spp. [6]; day 10 of rifaximin treatment): 2×10^3 cfu/ml
number of rats with detectable S. aureus in stool (Staphylococcus spp. [6]; day 10 of rifaximin treatment, of 20 rats (18/20 at baseline)): 5
time course of Staphylococcus spp in stool (Staphylococcus spp. [6]; during rifaximin 200 mg daily gavage): diminish significantly in stool by day 3
rate of colonization of rats with Staphylococcus (Staphylococcus): reduction in the rate of colonization
normal flora (coliform) counts in the small bowel (coliform bacteria; rifaximin by itself or with oil as dissolving media): did not appear to change normal flora counts
median coliform count in the duodenum (coliform bacteria; rifaximin in PBS or rifaximin 200 mg in lipid, daily gavage 7 days): 0
